{
  "source": "paper PMC7824769",
  "about": "“Identification of Small Molecules Blocking the Pseudomonas aeruginosa Type III Secretion System Protein PcrV” (Biomolecules, 2021)",
  "biological_target": "PcrV (Pseudomonas aeruginosa, UniProt G3XD49)",
  "sequence (G3XD49 entry or part of it)": "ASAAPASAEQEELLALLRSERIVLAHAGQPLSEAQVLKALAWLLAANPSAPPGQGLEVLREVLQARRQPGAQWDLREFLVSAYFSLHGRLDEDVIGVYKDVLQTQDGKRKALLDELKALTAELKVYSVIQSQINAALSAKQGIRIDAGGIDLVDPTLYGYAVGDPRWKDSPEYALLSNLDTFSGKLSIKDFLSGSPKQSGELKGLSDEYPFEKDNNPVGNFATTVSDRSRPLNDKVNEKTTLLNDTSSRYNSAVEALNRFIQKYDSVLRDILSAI",
  "experiment": "SPR library screening at 100 µM, PcrV versus deactivated control protein CAII",
  "assay_type": "binding",
  "details": "Figure 2",
  "procedure": "The SPR screening was performed using the ProteOn^TM XPR36 Protein Interaction Array System (Bio-Rad Laboratories Inc., Hercules, CA, USA) with ProteOn GLH sensor chip (Bio-Rad Laboratories Inc., Hercules, CA, USA), and the results were analyzed with the ProteOn Manager software^TM (Bio-Rad Laboratories Inc., Hercules, CA, USA), Excel 2016 (Microsoft Office), and GraphPad Prism 7.04. All SPR experiments were performed at 25 °C. The multichannel module of the ProteOn system was in the vertical position during protein immobilization. The proteins were attached to the surface of a GLH sensor chip via amine coupling chemistry. A buffer scouting was performed to elucidate the optimal binding conditions of PcrV to the GLH sensor chip. First, channels 1–4 on the chip surface were activated using a 1:1 mixture of 40 mM 1-ethyl-3-(3-dimethylaminopropyl)carbodiimide hydrochloride (EDAC) (Bio-Rad Laboratories Inc., Hercules, CA, USA) and 10 mM N-hydroxysulfosuccinimide (sulfo-NHS, Bio-Rad Laboratories Inc., Hercules, CA, USA) for 300 s at 30 µL/min. Next, the proteins PcrV (33,398.6 Da, 6.37 mg/mL) was diluted in 10 mM NaOAc (pH 4, 4.5, and 5) to 0.05 mg/mL. PcrV was immobilized in channel 1–3 for 540 s at 30 µL/min. […] The final amount of immobilized protein was measured in resonance units (RU) relative to the signal of the baseline prior activation. […]",
  "data": [
    {"smiles": "Cc1c(Br)ccc(OCCCC(=O)O)c1C", "note": "[Compound H1]", "values": [
      {"measurement": "Selectivity of binding to PcrV over CAII in SPR screening", "result": "selective PcrV binders"}
    ]}
  ]
}
